According to PubChem BioAssay AID1963836 (Molecular Pharmacology Branch, DTP, NCI, 2024):

Test system: 857933-349-R-J2-PDC complex spheroid viability
Assay: Anticancer human tumor 857933-349-R-J2-PDC patient-derived colon adenocarcinoma cell line growth inhibition [POLQ]
Details: for IC50: curve of first compound; for viability, T/C: stronger effect = lower value
Description: Multicellular complex tumor spheroid response to Polymerase (POL) inhibitors (novobiocin, ART-558, RP6685) in combination with a variety of drugs and investigational agents in selected tumor cell lines
The POL inhibitors (novobiocin, ART-558, and RP6685) were evaluated both individually and in combination with standard of care and investigational anticancer small molecules within a complex spheroid model of solid tumors. . Complex spheroids include a stromal component modeled by human endothelial cells (HUVEC) and fibroblasts modeled by human mesenchymal stem cells (MSCs). The concentration ranges selected for each drug and investigational agent were based upon clinically achievable concentrations if the clinical Cmax of the agent was known.
Compounds. The drugs and investigational agents: novobiocin (NSC847541), ART-558 (NSC835418), RP-6685 (NSC848927), peposertib (NSC802822), ceralasertib (NSC780249), elimusertib (NSC800525), camonsertib (NSC841442), AZD-1390 (NSC803789), olaparib (NSC753686), talazoparib (NSC767125), rucaparib (NSC756644), sotorasib (NSC818433), MRTX-1133 (NSC836407), SN-38 (NSC673596), topotecan (NSC609699), epotoside (NSC141540), doxorubicin (NSC123127), gemcitabine (NSC613327), 5-fluorouracil (NSC19893), paclitaxel (NSC125973), vemurafenib (NSC761431), MSA-2 (NSC828583), SN-011 (NSC837082), adavosertib (NSC754352), prexasertib (NSC758257), carboplatin (NSC241240) and oxaliplatin (NSC266046), were obtained from the National Cancer Institute (NCI) Developmental Therapeutics Program Chemical Repository (21). The FDA-approved anticancer drug set is available from the Developmental Therapeutics Program at https://dtp.cancer.gov/organization/dscb/obtaining/. […] The stock solutions were prepared in dimethyl sulfoxide (DMSO, Sigma-Aldrich, St. Louis, MO, cat. D2650), except for the platinum compounds which were prepared in saline (Quality Biological, Gaithersburg, MD, cat. 114-055-101), at 800-fold the tested concentration and stored at -70 degrees C prior to their use. All drugs and investigational agents were tested over a range starting from a high concentration at or near the clinical Cmax and decreasing in half-log increments. If the clinical Cmax for an agent had not been determined, the highest concentration tested was 10 microM, except for SN-38, which was tested at a high concentration of 1 microM.
Cell Culture. All cells were maintained in an incubator at 37 degrees C and 5% CO2 with 95% humidity. The PDC lines were cultured according to standard operating procedures established by the NCI PDMR (https://pdmr.cancer.gov). Table 3 of the manuscript, lists the cell lines along with the number of the three cell types plated to form the mct-spheroids and media for tumor cell growth. After thawing, all PDC lines, except 997537-175-T-J1-PDC and 415267-285-R-J2-PDC, were cultured in Matrigel-coated flasks prepared with a working solution of 1X Ham's F-12 nutrient mix, without supplementation (Thermo Fisher Scientific, cat. 11765054), 100 U/mL penicillin-streptomycin (Thermo Fisher Scientific, cat. 15140122), and 2.5% Matrigel (Corning Inc., Corning, NY, cat. 354248) for the first three passages. The two PDC lines 997537-175-T-J1-PDC and 415267-285-R-J2-PDC were cultured on uncoated flasks. The 857933-349-R-J2-PDC line was cultured in 6C/Colon 1B media containing advanced DMEM/F-12 (Thermo Fisher Scientific, cat. 12634028), 10 mM HEPES (Thermo Fisher Scientific, cat. 15630080), 1X GlutaMAX supplement (Thermo Fisher Scientific, cat. 35050061), 0.1 mg/mL primocin (InvivoGen, San Diego, CA, cat. ant-pm-2), 10% defined fetal bovine serum, heat inactivated (HyClone Laboratories Inc., Logan, UT, cat. SH30070.03HI), 50% L-WRN conditioned media (ATCC, cat. CRL-3276), 1.25 mM N-Acetyl-L-cysteine (Sigma-Aldrich, cat. A9165), 10 mM nicotinamide (Sigma-Aldrich, cat. N0636), 1X B-27 supplement (Thermo Fisher Scientific, cat. 17504044), 1X N-2 supplement (Thermo Fisher Scientific, cat. […]

[1] = second compound 0.0316 µM, first compound 0.0316 µM
[2] = second compound 0.0316 µM, first compound 0.1 µM
[3] = second compound 0.0316 µM, first compound 0.316 µM
[4] = second compound 0.0316 µM, first compound 1 µM
[5] = second compound 0.0316 µM, first compound 3.16 µM
[6] = second compound 0.0316 µM, first compound 10 µM
[7] = second compound 0.1 µM, first compound 0.0316 µM
[8] = second compound 0.1 µM, first compound 0.1 µM
[9] = second compound 0.1 µM, first compound 0.316 µM
[10] = second compound 0.1 µM, first compound 1 µM
[11] = second compound 0.1 µM, first compound 3.16 µM
[12] = second compound 0.1 µM, first compound 10 µM
[13] = second compound 0.316 µM, first compound 0.0316 µM
[14] = second compound 0.316 µM, first compound 0.1 µM
[15] = second compound 0.316 µM, first compound 0.316 µM
[16] = second compound 0.316 µM, first compound 1 µM
[17] = second compound 0.316 µM, first compound 3.16 µM
[18] = second compound 0.316 µM, first compound 10 µM
[19] = second compound 1 µM, first compound 0.0316 µM
[20] = second compound 1 µM, first compound 0.1 µM
[21] = second compound 1 µM, first compound 0.316 µM
[22] = second compound 1 µM, first compound 1 µM
[23] = second compound 1 µM, first compound 3.16 µM
[24] = second compound 1 µM, first compound 10 µM
[25] = second compound 3.16 µM, first compound 0.0316 µM
[26] = second compound 3.16 µM, first compound 0.1 µM
[27] = second compound 3.16 µM, first compound 0.316 µM
[28] = second compound 3.16 µM, first compound 1 µM
[29] = second compound 3.16 µM, first compound 3.16 µM
[30] = second compound 3.16 µM, first compound 10 µM
[31] = second compound 10 µM, first compound 0.0316 µM
[32] = second compound 10 µM, first compound 0.1 µM
[33] = second compound 10 µM, first compound 0.316 µM
[34] = second compound 10 µM, first compound 1 µM
[35] = second compound 10 µM, first compound 3.16 µM
[36] = second compound 10 µM, first compound 10 µM
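Further: spheroids exposed to compounds for seven days before readout.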

Work on COc1cc(C2c3cc4c(cc3C(OC3OC5COC(C)OC5C(O)C3O)C3COC(=O)C23)OCO4)cc(OC)c1O (centres undefined) + Nc1ccc(C#CCN(C(=O)Cc2ncc(C(F)(F)F)cc2C(F)(F)F)c2ccc(F)cc2)nn1 yielded an IC50 (second compound 0.0316 µM) of 1290 nM, an IC50 (second compound 0.1 µM) of 747 nM and an IC50 (second compound 0.316 µM) of 567 nM. It also gave an IC50 (second compound 1 µM) of 532 nM, an IC50 (second compound 3.16 µM) of 512 nM and an IC50 (second compound 10 µM) of 599 nM. It also gave a viability, T/C [1] of 97.1%, a viability, T/C [2] of 64.8% and a viability, T/C [3] of 64.5%. It also gave a viability, T/C [4] of 64%, a viability, T/C [5] of 38% and a viability, T/C [6] of 25.9%. For the same compound, the viability, T/C [7] was 92.5%, the viability, T/C [8] was 72.5% and the viability, T/C [9] was 53.6%. The viability, T/C [10] was 52.3%, the viability, T/C [11] was 36.8% and the viability, T/C [12] was 22.1%. The viability, T/C [13] was 94.2%, the viability, T/C [14] was 68.4% and the viability, T/C [15] was 53.5%. For the same compound, the viability, T/C [16] was 50.6%, the viability, T/C [17] was 35.9% and the viability, T/C [18] was 25.3%. It also gave a viability, T/C [19] of 101%, a viability, T/C [20] of 68% and a viability, T/C [21] of 54.3%. It also gave a viability, T/C [22] of 51.9%, a viability, T/C [23] of 33.3% and a viability, T/C [24] of 31.5%. It also gave a viability, T/C [25] of 85.3%, a viability, T/C [26] of 74% and a viability, T/C [27] of 53%. For the same compound, the viability, T/C [28] was 44.6%, the viability, T/C [29] was 31% and the viability, T/C [30] was 27.6%. For the same compound, the viability, T/C [31] was 88%, the viability, T/C [32] was 71.5% and the viability, T/C [33] was 60%. It also gave a viability, T/C [34] of 43.1%, a viability, T/C [35] of 34.1% and a viability, T/C [36] of 32.2%.

COc1ccc([C@@H](O)c2cc(-c3ncnc4cc(N5CCOCC5)ccc34)c(F)cc2Cl)nn1 + Cc1cccc(N(C)C(=O)C2C(O)CCN2c2nc(C)cc(C(F)(F)F)c2C#N)c1 showed an IC50 (second compound 0.0316 µM) of over 10000 nM, an IC50 (second compound 0.1 µM) of over 10000 nM and an IC50 (second compound 0.316 µM) of over 10000 nM. For the same compound, the IC50 (second compound 1 µM) was over 10000 nM, the IC50 (second compound 3.16 µM) was 8540 nM and the IC50 (second compound 10 µM) was over 10000 nM. The viability, T/C [1] was 118%, the viability, T/C [2] was 90.8% and the viability, T/C [3] was 88.6%. For the same compound, the viability, T/C [4] was 73.4%, the viability, T/C [5] was 71.6% and the viability, T/C [6] was 64.2%. It also gave a viability, T/C [7] of 91.8%, a viability, T/C [8] of 114% and a viability, T/C [9] of 91.1%. The viability, T/C [10] was 79%, the viability, T/C [11] was 72.8% and the viability, T/C [12] was 57.7%. The viability, T/C [13] was 110%, the viability, T/C [14] was 116% and the viability, T/C [15] was 83.6%. It also gave a viability, T/C [16] of 88.8%, a viability, T/C [17] of 93.7% and a viability, T/C [18] of 62.8%. The viability, T/C [19] was 91.9%, the viability, T/C [20] was 97.3% and the viability, T/C [21] was 119%. The viability, T/C [22] was 63.8%, the viability, T/C [23] was 91.6% and the viability, T/C [24] was 56.8%. It also gave a viability, T/C [25] of 87.1%, a viability, T/C [26] of 87.4% and a viability, T/C [27] of 95.5%. The viability, T/C [28] was 71.5%, the viability, T/C [29] was 85.6% and the viability, T/C [30] was 44.4%. It also gave a viability, T/C [31] of 97.9%, a viability, T/C [32] of 97.5% and a viability, T/C [33] of 76.3%. For the same compound, the viability, T/C [34] was 61.6%, the viability, T/C [35] was 71.9% and the viability, T/C [36] was 49.2%.
